The source of these data is patent publication US20260035407A1, “CYCLIC PEPTIDE DERIVATIVE, METHOD FOR PRODUCING SAME, AND COMPOSITION” (priority 2022, published 2026).

For the first experiment, the system named is Mouse astrocytes. The experiment is described as follows: Cell proliferation assay (BrdU method) on mouse astrocytes. Format: cell-based. The note with it: Astrocyte; mouse astrocytes, compound concentration 50 μM, 24 hours treatment in serum-free DMEM, BrdU; read-out: Cell proliferation activity, proliferative activity (%). Here is the method: A screening test regarding the mouse astrocyte proliferation action of the compound synthesized in the Example described above was performed.
• Cells: Mouse astrocytes • Manufacturer: Cosmo Bio • Catalog No.: AST02C • Medium: 10% FBS, 1% PS, DMEM
• Cell proliferation assay (BrdU method)
Mouse astrocytes were put into sleep in a T-75 flask using a medium (10% FBS, 1% Penicillin-Streptomycin, DMEM (Low Glucose)) and cultured in a CO2 incubator (37° C., 5% CO2, ambient O2, wet, and the same applies below) for 4 days. Medium exchange was performed on the second day after sleep onset. The cells were detached using Trypsin-EDTA (0.05%) and phenol red, neutralized with a medium, and centrifuged (180×g, RT, 5 minutes), then seeded in a 96-well plate at 20,000 cells/0.1 mL/well using a medium, and cultured in a CO2 incubator. On the next day, the medium was replaced with serum-free DMEM (Low Glucose), and the cells were further cultured in a CO2 incubator for 24 hours.
Next, the medium was replaced with serum-free DMEM (Low Glucose) to which the compound was added or with compound-free-serum-free DMEM (Low Glucose), and the cells were further cultured in a CO2 incubator for 24 hours to treat the cells with the compound.
After completion of the compound treatment, cell proliferation assay was performed using Cell Proliferation ELISA, BrdU (colometric) (MERCK, Cat. No. 11647229001). 10 μL of a BrdU labeling solution (prepared by adding a BrdU-labeled reagent to a test substance-treated medium in an amount of 1/100 vol) was added thereto, and the mixture was cultured in a CO2 incubator for 4 hours. Next, after removing the medium, FixDenat was added at 200 μL/well and incubated at room temperature for 30 minutes. Next, FixDenat was removed and a POD-labeled anti-BrdU antibody reaction solution (prepared by adding 1/100 vol of a POD-labeled anti-BrdU antibody stock solution to an antibody diluent) was added at 100 μL/well, and the cells were incubated at room temperature for 2 hours. Next, antibodies were removed, and the wells were washed 3 times with 200 μL/well of a washing liquid. After washing, 100 μL/well of a substrate solution was added, incubation was performed at room temperature for 30 minutes, and an absorbance (370 nm, control wavelength 492 nm) was measured with a plate reader. A difference between the test substance-free group and the test substance-treated group was verified by Dunnett's test in which the test substance-free group was used as a control. The significance level was 5% for both groups.
Take `CN[C@H]1Cc2ccc(O)c(c2)OC[C@@H](C(=O)N[C@@H](CCC(=O)O)C(=O)O)NC(=O)[C@H](C(C)C)NC1=O` [Compound 5]: the activity at 50 µM was 90 to 110%.

Staying with this experiment, now noted: Astrocyte; mouse astrocytes, compound concentration 100 μM, 24 hours treatment in serum-free DMEM, BrdU; read-out: Cell proliferation activity, proliferative activity (%).
With `CC(C)[C@@H]1NC(=O)[C@@H](N)Cc2ccc(O)c(c2)OC[C@@H](C(=O)N[C@@H](CCC(=O)O)C(=O)O)NC1=O` [Compound 8], the activity at 100 µM was 90 to 110%.

The experiment is the same for the next values; noted with them: Astrocyte; mouse astrocytes, compound concentration 200 μM, 24 hours treatment in serum-free DMEM, BrdU; read-out: Cell proliferation activity, proliferative activity (%).
As to `CN[C@H]1Cc2ccc(O)c(c2)OC[C@@H](C(=O)N[C@@H](CCC(=O)O)C(=O)O)NC(=O)CNC1=O` [Compound 3], the activity at 200 µM lay in the range of 90 to 110%.

With `CN[C@H]1Cc2ccc(O)c(c2)OC[C@@H](C(=O)N[C@@H](CC(=O)O)C(=O)O)NC(=O)CNC1=O` [Compound 11], the activity at 200 µM was in the range of 110 to 130%.

Still in this experiment, the particulars now being: Astrocyte; mouse astrocytes, compound concentration 400 μM, 24 hours treatment in serum-free DMEM, BrdU; read-out: Cell proliferation activity, proliferative activity (%).
As for `CN[C@H]1Cc2ccc(O)c(c2)O[C@@H](C)[C@@H](C(=O)N[C@@H](CCC(=O)O)C(=O)O)NC(=O)CNC1=O` [Compound 4], the activity at 400 µM fell in the range of 90 to 110%. The same measure, in the same setting: the same measure for `N[C@H]1Cc2ccc(O)c(c2)OC[C@@H](C(=O)N[C@@H](CCC(=O)O)C(=O)O)NC(=O)CNC1=O` [Compound 7]: 90 to 110%; for `CN[C@H]1Cc2ccc(O)c(c2)O[C@@H](C)[C@@H](C(=O)N[C@@H](CC(=O)O)C(=O)O)NC(=O)CNC1=O` [Compound 12]: 110 to 130%.

Staying with this experiment, now noted: Mus musculus, Astrocyte, 24 h, read-out: Cell proliferation activity, proliferative activity (%).
Take `CC[C@@]1(C)Oc2cc(ccc2O)C[C@H](NC)C(=O)N[C@@H](C(C)C)C(=O)N[C@@H]1C(=O)N[C@@H](CCC(=O)O)C(=O)O` [Compound 1]: the activity at 25 µM was more than 150%. Same read-out and setting: the same measure for `CC[C@@]1(C)Oc2cc(ccc2O)C[C@H](NC)C(=O)NCC(=O)N[C@@H]1C(=O)N[C@@H](CCC(=O)O)C(=O)O` [Compound 2]: 110 to 130%. As for `CC[C@@]1(C)Oc2cc(ccc2O)C[C@H](N)C(=O)N[C@@H](C(C)C)C(=O)N[C@@H]1C(=O)N[C@@H](CCC(=O)O)C(=O)O` [Compound 6], the activity at 200 µM fell in the range of 110 to 130%. Still for that read-out and setting: the same measure for `CC[C@@]1(C)Oc2cc(ccc2O)C[C@H](NC)C(=O)N[C@@H](C(C)C)C(=O)N[C@@H]1C(=O)N[C@@H](CC(=O)O)C(=O)O` [Compound 9]: more than 150%. Regarding `CC[C@@]1(C)Oc2cc(ccc2O)C[C@H](NC)C(=O)NCC(=O)N[C@@H]1C(=O)N[C@@H](CC(=O)O)C(=O)O` [Compound 10], the activity at 100 µM was 110 to 130%. On to `CC[C@@]1(C)Oc2cccc(c2)C[C@H](N)C(=O)NCC(=O)N[C@@H]1C(=O)N[C@@H](CCC(=O)O)C(=O)O` [Compound 13], for which the activity at 200 µM lay in the range of 110 to 130%. As for `CC[C@@]1(C)Oc2cccc(c2)C[C@H](NC)C(=O)N[C@@H](C(C)C)C(=O)N[C@@H]1C(=O)N[C@@H](CCC(=O)O)C(=O)O` [Compound 14], the activity at 200 µM lay in the range of 110 to 130%. The same measure, in the same setting: the same measure for `CC[C@@]1(C)Oc2cc(ccc2O)C[C@H](N)C(=O)N[C@@H](C(C)C)C(=O)N[C@@H]1C(=O)N[C@@H](CC(=O)O)C(=O)O` [Compound 15]: 90 to 110%; for `CN[C@H]1Cc2ccc(O)c(c2)OC(C)(C)[C@@H](C(=O)N[C@@H](CCC(=O)O)C(=O)O)NC(=O)[C@H](C(C)C)NC1=O` [Compound 16]: 130 to 150%.

`CN[C@H]1Cc2ccc(O)c(c2)OC(C)(C)[C@@H](C(=O)N[C@@H](CC(=O)O)C(=O)O)NC(=O)[C@H](C(C)C)NC1=O` [Compound 17]: the activity at 25 µM is 90 to 110%. In the case of `CC[C@@]1(C)Oc2cc(ccc2O)C[C@H](NC)C(=O)N[C@@H](C(C)C)C(=O)N[C@@H]1C(=O)NCCCC(=O)O` [Compound 18], the activity at 50 µM fell in the range of 90 to 110%. As for `CC(C)[C@@H]1NC(=O)[C@@H](N)Cc2ccc(O)c(c2)OC(C)(C)[C@@H](C(=O)N[C@@H](CCC(=O)O)C(=O)O)NC1=O` [Compound 19], the activity at 200 µM lay in the range of 110 to 130%. On the same count and under the same terms, the same measure for `CC[C@@]1(C)Oc2cc(ccc2O)C[C@H](NC)C(=O)N[C@@H](C(C)C)C(=O)N[C@@H]1C(=O)N[C@H](CCC(=O)O)C(=O)O` [Compound 20]: 90 to 110%.

For the compound `CC[C@@]1(C)Oc2cc(ccc2O)C[C@H](NC)C(=O)N[C@@H](C(C)C)C(=O)N[C@@H]1C(=O)N[C@H](CC(=O)O)C(=O)O` [Compound 21], the activity at 50 µM fell in the range of 90 to 110%. For the compound `CC[C@@]1(C)Nc2cc(ccc2O)C[C@H](NC)C(=O)N[C@@H](C(C)C)C(=O)N[C@@H]1C(=O)N[C@@H](CCC(=O)O)C(=O)O` [Compound 22], the activity at 200 µM is 90 to 110%. As to `CC[C@@]1(C)Oc2cc(ccc2O)C[C@H](N(C)C)C(=O)N[C@@H](C(C)C)C(=O)N[C@@H]1C(=O)N[C@@H](CCC(=O)O)C(=O)O` [Compound 23], the activity at 1000 µM fell in the range of 130 to 150%.

As for `CC[C@@]1(C)Oc2cc(ccc2O)C[C@H](NC)C(=O)N[C@@H](Cc2ccccc2)C(=O)N[C@@H]1C(=O)N[C@@H](CCC(=O)O)C(=O)O` [Compound 24], the activity at 200 µM was in the range of 130 to 150%. Consider `CC[C@@]1(C)Oc2cc(ccc2O)C[C@H](NC)C(=O)N[C@@H](CCC(=O)O)C(=O)N[C@@H]1C(=O)N[C@@H](CCC(=O)O)C(=O)O` [Compound 25], for which the activity at 50 µM was 90 to 110%.

Consider `CC[C@@]1(C)Oc2cc(ccc2O)C[C@H](NC)C(=O)N[C@@H](CO)C(=O)N[C@@H]1C(=O)N[C@@H](CCC(=O)O)C(=O)O` [Compound 27], for which the activity at 200 µM lay in the range of 90 to 110%. As for `CC[C@@]1(C)Oc2cc(ccc2O)C[C@H](NC)C(=O)N[C@@H]([C@@H](C)O)C(=O)N[C@@H]1C(=O)N[C@@H](CCC(=O)O)C(=O)O` [Compound 28], the activity at 50 µM is 110 to 130%. As for `CC[C@@]1(C)Oc2cc(ccc2O)C[C@H](NC)C(=O)N[C@@H](Cc2ccc(O)cc2)C(=O)N[C@@H]1C(=O)N[C@@H](CCC(=O)O)C(=O)O` [Compound 29], the activity at 200 µM lay within 90 to 110%. `CC[C@@]1(C)Oc2cc(ccc2O)C[C@H](NC)C(=O)N[C@@H](CCCNC(=N)N)C(=O)N[C@@H]1C(=O)N[C@@H](CCC(=O)O)C(=O)O` [Compound 31]: the activity at 100 µM was 110 to 130%. On the same count and under the same terms, the same measure for `CC[C@@]1(C)Oc2cc(ccc2OC)C[C@H](NC)C(=O)N[C@@H](C(C)C)C(=O)N[C@@H]1C(=O)N[C@@H](CCC(=O)O)C(=O)O` [Compound 37]: 110 to 130%; for `CC[C@@]1(C)Oc2cc(ccc2O)C[C@H](N(C)C)C(=O)N[C@@H](C(C)C)C(=O)N[C@@H]1C(=O)N[C@@H](CC(=O)O)C(=O)O` [Compound 39]: 130 to 150%.

As to `CC[C@@]1(C)Oc2cc(ccc2O)C[C@H](N(C)C)C(=O)N[C@@H](CCC(=O)O)C(=O)N[C@@H]1C(=O)N[C@@H](CCC(=O)O)C(=O)O` [Compound 40], the activity at 50 µM was 90 to 110%.

Consider `CC[C@@]1(C)Oc2cc(ccc2O)C[C@H](NC)C(=O)N(C)[C@@H](C(C)C)C(=O)N[C@@H]1C(=O)N[C@@H](CC(=O)O)C(=O)O` [Compound 41], for which the activity at 50 µM is 90 to 110%. With `CC[C@@]1(C)Oc2cc(ccc2O)C[C@H](NC)C(=O)N(C)[C@@H](C(C)C)C(=O)N[C@@H]1C(=O)N[C@@H](CCC(=O)O)C(=O)O` [Compound 42], the activity at 200 µM is 130 to 150%.

For the compound `CC[C@@]1(C)Oc2cc(ccc2O)C[C@H](NC)C(=O)N[C@@H](C(C)C)C(=O)N(C)[C@@H]1C(=O)N[C@@H](CCC(=O)O)C(=O)O` [Compound 43], the activity at 100 µM lay within 110 to 130%. With `CC[C@@]1(C)Oc2cc(ccc2O)C[C@H](NC)C(=O)N[C@@H](C(C)C)C(=O)N(C)[C@@H]1C(=O)N[C@@H](CC(=O)O)C(=O)O` [Compound 44], the activity at 200 µM lay within 110 to 130%. `CC[C@@]1(C)Oc2cc(ccc2O)C[C@H](NC)C(=O)N[C@H](C(C)C)C(=O)N[C@@H]1C(=O)N[C@@H](CC(=O)O)C(=O)O` [Compound 45]: the activity at 50 µM fell in the range of 90 to 110%.

Regarding `CC[C@@]1(C)Oc2cc(ccc2O)C[C@H](NC)C(=O)N[C@@H](C(C)C)C(=O)N[C@@H]1C(=O)N(C)[C@@H](CC(=O)O)C(=O)O` [Compound 47], the activity at 200 µM was in the range of 130 to 150%. As for `CC[C@@]1(C)Oc2cc(ccc2O)C[C@H](NC)C(=O)N[C@@H](C)C(=O)N[C@@H]1C(=O)N[C@@H](CCC(=O)O)C(=O)O` [Compound 48], the activity at 100 µM is 110 to 130%. For the compound `CC[C@@]1(C)Oc2cc(ccc2O)C[C@H](NC)C(=O)N[C@@H](CC(C)C)C(=O)N[C@@H]1C(=O)N[C@@H](CCC(=O)O)C(=O)O` [Compound 49], the activity at 200 µM was 110 to 130%. Take `CC[C@H](C)[C@@H]1NC(=O)[C@@H](NC)Cc2ccc(O)c(c2)O[C@](C)(CC)[C@@H](C(=O)N[C@@H](CCC(=O)O)C(=O)O)NC1=O` [Compound 50]: the activity at 50 µM is 130 to 150%.
